# Experimental data taken from PMC9515143, “Phosphorylation of Jhd2 by the Ras-cAMP-PKA(Tpk2) pathway regulates histone modifications and autophagy” (Nature Communications, 2022).
# Tests used:
# H3K4me1 and H3K4me2 = assay: Western blot of H3K4me1 and H3K4me2 in yeast cells treated with glucose; type: cell-based, budding yeast (Saccharomyces cerevisiae); details: WT cells, different glucose concentrations, 0.5 hr
# Procedure: (§1) To examine the effect of glucose on histone modifications, we grew yeast cells in 2% glucose-containing medium (YPD) until log phase. Cells were collected and then grown in the medium containing different concentrations of glucose for 0.5 hr.
# (§2) To examine the effect of glucose on histone modifications, yeast cells were grown in 2% glucose-containing YPD (Yeast Extract Peptone Dextrose) medium until OD600 of 0.7–1.0. Cells were then collected, washed and resuspended in YP medium for 3 hr followed by treatment with different concentrations of glucose for 0.5 hr. For 1NM-PP1 (MCE, HY-13804) treatment, cells were grown in 2% YPD until OD600 of 0.7–1.0. Cells were then treated with 25 μM 1NM-PP1 for 0.5 hr. For FBP and pyruvate treatment, cells were pre-treated with Zymolase (Mpbio, 08320921) to increase the permeability. In brief, cells were grown in YPD medium until OD600 of 0.7–1.0, centrifuged and resuspended in 1 ml SB buffer (100 mM Sorbitol, 20 mM Tris pH 7.4). 10 μl Zymolase was then added and incubated at 30 °C for 15 min. The spheroplasts were washed and cultured in YPD medium containing different concentrations of FBP and pyruvate for 3 hr.
# Cells were grown in 5 ml YPD or selective medium until OD600 of 0.7–1.0. […] The protein bands were visualized using the ECL Chemiluminescence Detection Kit (Bio-Rad, 170–5061) and quantified with Image J software (v.1.8.0).
# H3K4me3 [1] = assay: Western blot of H3K4me3 in yeast cells treated with glucose, 2-DG, FBP or pyruvate; type: cell-based, budding yeast (Saccharomyces cerevisiae); details: WT cells, YP medium with different glucose concentrations, 0.5 hr
# Text: as §1
# PKA is activated by cyclic AMP (cAMP), which binds to its inhibitory subunit, Bcy1 and causes its dissociation (Fig. 1g). We thus examined H3K4me3 in deletion mutants of cAMP phosphodiesterases PDE1 and PDE2, which encode enzymes to hydrolyze cAMP and inactivate PKA[39],[40]. […] To test whether the Ras-cAMP-PKA pathway mediates glucose-induced H3K4me3, we examined H3K4me3 in ras1Δ and ras2Δ mutants. […] Ras1/2 can be activated by glycolysis-derived fructose-1,6-biphosphate (FBP) via Cdc25[6] (Fig. 1g).
# as §2
# (§3) Cells were grown in 5 ml YPD or selective medium until OD600 of 0.7–1.0. Cells were harvested and lysed in alkaline lysis buffer (2 M NaOH, 8% 2-mercaptoethanol). After centrifugation, the protein pellet was resuspended in 150 μl 2×SDS-sample buffer. Protein samples were separated by 8–15% SDS-PAGE and transferred to PVDF membrane. The blots were probed with primary antibodies followed by incubation with horseradish peroxidase-labelled IgG secondary antibodies. The protein bands were visualized using the ECL Chemiluminescence Detection Kit (Bio-Rad, 170–5061) and quantified with Image J software (v.1.8.0).
# Jhd2 = assay: In vitro demethylase assay, Jhd2 purified from cells grown in increasing glucose; type: biochemical, budding yeast (Saccharomyces cerevisiae); details: Jhd2 from cells grown in 0.05%, 0.5%
# Procedure: We also purified unphosphorylated Jhd2 from tpk2Δ mutant (Jhd2 tpk2Δ) and performed in vitro demethylase assay. […] We also treated WT Jhd2 with λ phosphatase to remove its phosphorylation and then used this dephosphorylated Jhd2 for in vitro demethylase assay. […] Furthermore, we purified Jhd2 from cells grown in increasing glucose concentrations (0.05%, 0.5%, 2%) and performed in vitro demethylase assay.
# The reaction was quenched by adding 2×SDS-PAGE loading buffer and incubated at 95 °C for 10 min. Samples were spotted to PVDF membrane followed by dot blots with indicated antibodies.
# PKA subunits = assay: Expression of PKA subunits (Tpk1, Tpk2, Tpk3, Bcy1) after glucose, Western blot; type: cell-based, budding yeast (Saccharomyces cerevisiae); details: for Tpk2/GAPDH / Tpk3/GAPDH: normalized to Tpk1/GAPDH at same glucose; for Bcy1/GAPDH: normalized to Bcy1/GAPDH at 0.05% glucose
# Procedure: as §3
# Supplementary Fi g . 11 Analysis of PKA subunits subcellular localization, expression and Bcy1 dissociation kinetics. […]
# For Supplem ent ar y Fi g. 11 b, dat a r ep res ent m ean s ± SEM; n=3 independent ex perim ents. Tw o -sid ed t-t ests were us ed for statistical
# Bcy1 = assay: Dissociation of Tpk1, Tpk2, Tpk3 from Bcy1 after glucose, Co-IP; type: cell-based, budding yeast (Saccharomyces cerevisiae); details: 2% glucose, 0-30 min
# Procedure: Yeast whole cell extract was prepared by vortexing with glass beads and then digested with Micrococcal Nuclease (MNase). Pre-cleared cell lysate was incubated with anti-FLAG M2 agarose for 1 hr at 4 °C. The beads were washed three times with IP washing buffer (40 mM HEPES-KOH, pH7.5, 0.1% NP-40, 10% glycerol, 1 mM PMSF, 350 mM NaCl, 2 μg/ml leupeptin, 1 μg/ml pepstatin A) and boiled in SDS-sample buffer for 5 min. Supernatants from the boiled beads were subjected to SDS-PAGE and Western blots.
# Supplementary Fi g . 11 Analysis of PKA subunits subcellular localization, expression and Bcy1 dissociation kinetics. a Subcellul ar localiz ation of Tpk1, Tpk2 and Tp k3. Cells (Tpk1-FLAG, Tpk2- FLAG, Tpk3- F LA G) wer e grown in YP+2% glucos e medium. Th e localization of Tpk1, Tpk2 and Tp k3 was detect ed with ant i-F LAG antibod y. […] Bc y1 was immunoprecipitated from cells (Tpk1- FLAG/Bcy1- M yc, Tpk2- FLAG/Bcy1-M yc, Tpk3- FLAG/Bcy1- M yc) with anti-M yc antibody.
# For Supplem ent ar y Fi g. 11 b, dat a r ep res ent m ean s ± SEM; n=3 independent ex perim ents. Tw o -sid ed t-t ests were us ed for statistical […]
# (1 picture or pasted object on this page, not shown here)
# H3K4me3 [2] = assay: Western blot of H3K4 methylation in mutants; type: cell-based, budding yeast (Saccharomyces cerevisiae)
# Procedure: as §3
structure (smiles),measurement,setting,value
OC[C@H]1OC(O)[C@H](O)[C@@H](O)[C@@H]1O (stereo partly shown) [glucose],H3K4me1 and H3K4me2 level,H3K4me1 and H3K4me2,had no effect on H3K4me1 and H3K4me2
same,H3K4me3 level,H3K4me3 [1],induced H3K4me3 in a dose-dependent manner
same,phosphorylation level and demethylase activity of Jhd2 purified from cells in 2% glucose versus 0.05% glucose,Jhd2,higher phosphorylation level but lower demethylase activity
same,Tpk2/GAPDH,"PKA subunits; 0.05% glucose, replicate 1",1.627
same,Tpk3/GAPDH,"PKA subunits; 0.05% glucose, replicate 1",0.4263
same,Tpk2/GAPDH,"PKA subunits; 0.05% glucose, replicate 2",1.616
same,Tpk3/GAPDH,"PKA subunits; 0.05% glucose, replicate 2",0.1439
same,Tpk2/GAPDH,"PKA subunits; 0.05% glucose, replicate 3",1.728
same,Tpk3/GAPDH,"PKA subunits; 0.05% glucose, replicate 3",0.2447
same,expression of PKA subunits,"PKA subunits; 0.05%, 0.5%, 2% glucose, Western blot",not significantly altered by glucose
same,Bcy1/GAPDH,"PKA subunits; 0.5% glucose, replicate 1",0.8311
same,Bcy1/GAPDH,"PKA subunits; 0.5% glucose, replicate 2",0.7213
same,Bcy1/GAPDH,"PKA subunits; 0.5% glucose, replicate 3",1.191
same,Tpk2/GAPDH,"PKA subunits; 0.5% glucose, replicate 1",1.363
same,Tpk3/GAPDH,"PKA subunits; 0.5% glucose, replicate 1",0.4332
same,Tpk2/GAPDH,"PKA subunits; 0.5% glucose, replicate 2",1.712
same,Tpk3/GAPDH,"PKA subunits; 0.5% glucose, replicate 2",0.3492
same,Tpk2/GAPDH,"PKA subunits; 0.5% glucose, replicate 3",1.416
same,Tpk3/GAPDH,"PKA subunits; 0.5% glucose, replicate 3",0.1641
same,Bcy1/GAPDH,"PKA subunits; 2% glucose, replicate 1",1.059
same,Bcy1/GAPDH,"PKA subunits; 2% glucose, replicate 2",0.8633
same,Bcy1/GAPDH,"PKA subunits; 2% glucose, replicate 3",0.977
same,Tpk2/GAPDH,"PKA subunits; 2% glucose, replicate 1",1.492
same,Tpk3/GAPDH,"PKA subunits; 2% glucose, replicate 1",0.565
same,Tpk2/GAPDH,"PKA subunits; 2% glucose, replicate 2",1.634
same,Tpk3/GAPDH,"PKA subunits; 2% glucose, replicate 2",0.1809
same,Tpk2/GAPDH,"PKA subunits; 2% glucose, replicate 3",1.419
same,Tpk3/GAPDH,"PKA subunits; 2% glucose, replicate 3",0.2075
same,dissociation of Tpk2 from Bcy1 compared with Tpk1 and Tpk3,Bcy1,Tpk2 dissociated with Bcy1 with a faster kinetics than Tpk1 and Tpk3
same,H3K4me3 level in chd1Δ mutant,"H3K4me3 [2]; chd1Δ, different glucose concentrations, 0.5 hr, Western blot (rebuttal)",glucose-induced
same,"H3K4me3 level, WT versus tpk2Δ","H3K4me3 [2]; increasing glucose concentrations, Western blot",induced H3K4me3 in WT but not tpk2Δ mutant
